In patent US20200261391A1, “METHODS OF REDUCING THE RISK OF A CARDIOVASCULAR EVENT IN A STATIN-TREATED SUBJECT BY INCREASING SERUM AND PLASMA EPA AND DPA LEVELS” (Amarin Pharmaceuticals Ireland Limited, priority 2019, published 2020):

Test system: TG, non-HDL-C, LDL-C, HDL-C, apo B, hsCRP
Assay: REDUCE-IT trial: fasting lipid, lipoprotein and inflammatory marker data over time
Format: in vivo, human
Method: Fasting Lipid Profile: The fasting lipid panel included: TG, TC, LDL-C, HDL-C, non-HDL-C, and VLDL-C. At all visits, LDL-C was calculated using the Friedewald equation. At Visit 1 and Visit 1.1 direct LDL-C were used if at the same visit TG>400 mg/dL (4.52 mmol/L). These LDL-C values were used for the evaluation of the LDL-C inclusion criterion (LDL-C qualifying measurements for randomization) and for the assessment of changes in the statin therapy when LDL-C was not at goal. […] In addition, irrespective of the TG levels, at Visit 2 (0 Months of Follow-up, baseline) and at Visit 4 (12 Months of Follow-up), LDL-C were measured by preparative ultracentrifugation. These preparative ultracentrifugation LDL-C measurements were used in the statistical analysis including the calculation of the percent change from baseline (1 year versus baseline). Hopkins LDL-C was calculated for each visit.
Biomarkers Assays: The biomarker assays included: hsCRP, Apo B and hsTnT.
The fasting lipid panel was tested at Screening (Visit 1 or Visit 1.1), Randomization visit (Visit 2; Day 0), Visit 3 (Day 120; ˜4 Months) and all other follow-up visits including the last visit. For change from baseline to 1 year preparative ultracentrifugation measurements for LDL-C were analyzed, unless this value was missing. If the LDL-C preparative ultracentrifugation values were missing, then another LDL-C value was used, with prioritization of values obtained from LDL-C Direct measurements, followed by LDL-C derived by the Friedewald calculation (only for subjects with TG<400 mg/dL), and finally LDL-C derived using the calculation published by Hopkins University investigators (Martin S S, Blaha M J, Elshazly M B, et al. Comparison of a novel method vs the Friedewald equation for estimating low-density lipoprotein cholesterol levels from the standard lipid profile. JAMA. 2013; 310:2061-8.). In addition, change from baseline to day 120 in LDL-C utilizing Friedewald's and Hopkins methods was analyzed, using the arithmetic mean of LDL-C obtained at Visit 2 (Day 0) and the preceding Visit 1 (or Visit 1.1). If one of these values was missing, the single available LDL-C value was used. LDL-C according to Hopkins was calculated at each visit.
The randomization visit was considered Baseline. If a baseline value was not available from the randomization visit, then the latest screening value was used. For measurements of lipids, lipoproteins and inflammatory markers, the change and the percent change were summarized at each visit. Since these biomarkers are typically not normally distributed, the Wilcoxon rank-sum test was used for treatment comparisons of the percent change from baseline, and medians and quartiles were provided for each treatment group. The medians of the differences between the treatment groups and 95% CIs were estimated with the Hodges-Lehmann method. In addition, shift-tables were generated as appropriate.

## CC/C=C\C/C=C\C/C=C\C/C=C\C/C=C\CCCC(=O)OCC [icosapent ethyl, eicosapentaenoic acid ethyl ester]
Year 2
  Apo B Median Observed Value: 80.0 mg/dL
  HDL-C Median % Change from Baseline: 0.0%
  HDL-C Median Absolute Change from Baseline: 0.0 mg/dL
  HDL-C Median Observed Value: 40.0 mg/dL
  LDL-C Hopkins Median % Change from Baseline: −0.2%
  LDL-C Hopkins Median Absolute Change from Baseline: -0.1 mg/dL
  LDL-C Hopkins Median Observed Value: 85.5 mg/dL
  Log hsCRP Median % Change from Baseline: −21.8%
  Log hsCRP Median Absolute Change from Baseline: −0.1 mg/L
  Log hsCRP Median Observed Value: 0.6 mg/L
  Non-HDL-C Median % Change from Baseline: −3.1%
  Non-HDL-C Median Absolute Change from Baseline: -3.5 mg/dL
  Non-HDL-C Median Observed Value: 113.0 mg/dL
  Triglycerides Median % Change from Baseline: −18.9%
  Triglycerides Median Absolute Change from Baseline: -38.5 mg/dL
  Triglycerides Median Observed Value: 173.0 mg/dL
  hsCRP Median % Change from Baseline: −13.9%
  hsCRP Median Absolute Change from Baseline: -0.2 mg/L
  hsCRP Median Observed Value: 1.8 mg/L
Year 2, vs placebo
  Apo B Between Group Difference Median % Change from Baseline: −9.7%
  Apo B Between Group Difference Median Absolute Change from Baseline: -8.0 mg/dL
  HDL-C Between Group Difference Median % Change from Baseline: −4.6%
  HDL-C Between Group Difference Median Absolute Change from Baseline: -2.0 mg/dL
  LDL-C Hopkins Between Group Difference Median % Change from Baseline: −11.1%
  LDL-C Hopkins Between Group Difference Median Absolute Change from Baseline: -9.4 mg/dL
  Log hsCRP Between Group Difference Median % Change from Baseline: −22.5%
  Log hsCRP Between Group Difference Median Absolute Change from Baseline: −0.4 mg/L
  Non-HDL-C Between Group Difference Median % Change from Baseline: −12.5%
  Non-HDL-C Between Group Difference Median Absolute Change from Baseline: -14.5 mg/dL
  Triglycerides Between Group Difference Median % Change from Baseline: −19.7%
  Triglycerides Between Group Difference Median Absolute Change from Baseline: -43.8 mg/dL
  hsCRP Between Group Difference Median % Change from Baseline: −39.9%
  hsCRP Between Group Difference Median Absolute Change from Baseline: -0.9 mg/L
Year 3
  HDL-C Median % Change from Baseline: 0.0%
  HDL-C Median Absolute Change from Baseline: 0.0 mg/dL
  HDL-C Median Observed Value: 40.0 mg/dL
  LDL-C Hopkins Median % Change from Baseline: −1.2%
  LDL-C Hopkins Median Absolute Change from Baseline: -1.0 mg/dL
  LDL-C Hopkins Median Observed Value: 84.6 mg/dL
  Non-HDL-C Median % Change from Baseline: −4.2%
  Non-HDL-C Median Absolute Change from Baseline: -4.8 mg/dL
  Non-HDL-C Median Observed Value: 112.0 mg/dL
  Triglycerides Median % Change from Baseline: −21.7%
  Triglycerides Median Absolute Change from Baseline: -44.0 mg/dL
  Triglycerides Median Observed Value: 167.0 mg/dL
Year 3, vs placebo
  HDL-C Between Group Difference Median % Change from Baseline: −3.8%
  HDL-C Between Group Difference Median Absolute Change from Baseline: -1.5 mg/dL
  LDL-C Hopkins Between Group Difference Median % Change from Baseline: −10.4%
  LDL-C Hopkins Between Group Difference Median Absolute Change from Baseline: -8.7 mg/dL
  Non-HDL-C Between Group Difference Median % Change from Baseline: −12.4%
  Non-HDL-C Between Group Difference Median Absolute Change from Baseline: -14.5 mg/dL
  Triglycerides Between Group Difference Median % Change from Baseline: −20.3%
  Triglycerides Between Group Difference Median Absolute Change from Baseline: -45.5 mg/dL
Year 4
  HDL-C Median % Change from Baseline: 1.0%
  HDL-C Median Absolute Change from Baseline: 0.5 mg/dL
  HDL-C Median Observed Value: 40.5 mg/dL
  LDL-C Hopkins Median % Change from Baseline: −0.6%
  LDL-C Hopkins Median Absolute Change from Baseline: -0.5 mg/dL
  LDL-C Hopkins Median Observed Value: 83.6 mg/dL
  Non-HDL-C Median % Change from Baseline: −4.2%
  Non-HDL-C Median Absolute Change from Baseline: -5.0 mg/dL
  Non-HDL-C Median Observed Value: 110.5 mg/dL
  Triglycerides Median % Change from Baseline: −21.7%
  Triglycerides Median Absolute Change from Baseline: -42.5 mg/dL
  Triglycerides Median Observed Value: 163.0 mg/dL
Year 4, vs placebo
  HDL-C Between Group Difference Median % Change from Baseline: −3.9%
  HDL-C Between Group Difference Median Absolute Change from Baseline: -1.5 mg/dL
  LDL-C Hopkins Between Group Difference Median % Change from Baseline: −10.6%
  LDL-C Hopkins Between Group Difference Median Absolute Change from Baseline: -8.9 mg/dL
  Non-HDL-C Between Group Difference Median % Change from Baseline: −12.0%
  Non-HDL-C Between Group Difference Median Absolute Change from Baseline: -14.0 mg/dL
  Triglycerides Between Group Difference Median % Change from Baseline: −17.4%
  Triglycerides Between Group Difference Median Absolute Change from Baseline: -38.0 mg/dL
Year 5
  HDL-C Median % Change from Baseline: 0.0%
  HDL-C Median Absolute Change from Baseline: 0.0 mg/dL
  HDL-C Median Observed Value: 41.0 mg/dL
  LDL-C Hopkins Median % Change from Baseline: −0.7%
  LDL-C Hopkins Median Absolute Change from Baseline: -0.8 mg/dL
  LDL-C Hopkins Median Observed Value: 82.2 mg/dL
  Non-HDL-C Median % Change from Baseline: −4.4%
  Non-HDL-C Median Absolute Change from Baseline: -5.0 mg/dL
  Non-HDL-C Median Observed Value: 109.0 mg/dL
  Triglycerides Median % Change from Baseline: −20.0%
  Triglycerides Median Absolute Change from Baseline: -38.0 mg/dL
  Triglycerides Median Observed Value: 158.0 mg/dL
Year 5, vs placebo
  HDL-C Between Group Difference Median % Change from Baseline: −3.0%
  HDL-C Between Group Difference Median Absolute Change from Baseline: -1.5 mg/dL
  LDL-C Hopkins Between Group Difference Median % Change from Baseline: −8.0%
  LDL-C Hopkins Between Group Difference Median Absolute Change from Baseline: -6.6 mg/dL
  Non-HDL-C Between Group Difference Median % Change from Baseline: −9.9%
  Non-HDL-C Between Group Difference Median Absolute Change from Baseline: -11.0 mg/dL
  Triglycerides Between Group Difference Median % Change from Baseline: −16.7%
  Triglycerides Between Group Difference Median Absolute Change from Baseline: -33.5 mg/dL
In vivo
  reduction in hsCRP: 40%
